Laboratory results: publication PMC13065080, “Discovery of a potent anti-Zika virus benzamide series targeting the viral protein NS4B” (PLOS Pathogens, 2026)
Like-named read-outs stand apart in the source and are kept apart here.

How the values were obtained:
ZIKV PLCal [1] = test: CPE-based anti-ZIKV concentration-response assay (96-well); format: cell-based, Zika virus
ZIKV-RLuc = test: microbe, parasite or virus in culture; format: cell-based, Zika virus
in vitro = details: African green monkey, CC50 Vero76
CHIKV = test: microbe, parasite or virus in culture; format: cell-based; details: Vero 76; read-out: EC50-CPE CHIKV
ZIKV PLCal [2] = test: Virus yield (titer) reduction assay in Huh 7.5.1 cells; format: cell-based, Zika virus; details: 1 µM
ZIKV-RLuc NS4B V241L = format: cell-based, Zika virus
ZIKV-RLuc NS4B A245T = format: cell-based, Zika virus
ZIKV-RLuc NS4B V248G = format: cell-based, Zika virus
ZIKV MR766 = test: microbe, parasite or virus in culture; format: cell-based; details: CPE-protection
ZIKV DAK-41525-MA = test: CPE-protection assay, ZIKV DAK-41525-MA; format: cell-based, Zika virus
ZIKV Ib H30656 = test: microbe, parasite or virus in culture; format: cell-based; details: CPE-protection
ZIKV FLR = test: microbe, parasite or virus in culture; format: cell-based; details: CPE-protection
ZIKV PRVABC59 = test: microbe, parasite or virus in culture; format: cell-based; details: CPE-protection
DENV Type 4 H241 = test: microbe, parasite or virus in culture; format: cell-based; details: CPE-protection; read-out: EC50 DENV Type 4 H241
YFV 17D = test: microbe, parasite or virus in culture; format: cell-based; details: CPE-protection
JEV SA-14 = test: CPE-protection assay, JEV; format: cell-based, Japanese encephalitis virus
WNV NY-99 = test: CPE-protection assay, WNV; format: cell-based, West Nile virus
ZIKV PLCal [3] = test: CPE-based phenotypic HTS assay (1536-well); format: cell-based, Zika virus; details: n = 10, uridine supplemented
Protocol: To begin, 600 cells at 2.5 μL/ well of Vero 76 cells in MEM-E supplemented with 10% FBS and 1X Antibiotic-Antimycotic (Gibco 15240-062) were dispensed to 1536 well plate (Aurora EBB0-40000A) and incubated at 37 °C in humidified incubators with 5% CO2 for 24 hours. After that, 30 nL of each compound or vehicle (75% DMSO) were transferred using pintool and further incubated for 2 hours. […] For the negative control wells (N = 24/plate), only virus dilution media was dispensed. Positive control wells contained virus and cells (N = 24/plate). After incubation at 37 °C in humidified incubators with 5% CO2 for 72 hours, plates were incubated for 10 minutes at room temperature, followed by dispensing 5 μL/well CellTiter Glo (Promega). Luminescent signal was detected using PHERAstar FSX (BMG Labtech).
In the primary screen, compounds were tested at a single concentration in singlicate at a final nominal concentration of 6.95 μM. Raw assay data was imported into UF Scripps’ corporate database and subsequently analyzed using Symyx software. Activity of each compound was calculated on a per-plate basis using the following equation: Percent Response of compound = 100*((Test Well-Median Data Wells)/ (Median High Control - Median Data Wells)). […]

DENV NS4B = target: T1, DENV NS4B (Dengue virus type 3, UniProt P27915); test: 19F-NMR binding, DENV NS4B; details: compound 50 µM, NS4B 5 µM
T1 construct: Overlaid ^19F-NMR spectra of JNJ-1802 in absence (blue) and presence of DENV NS4B (red)
T1 sequence (P27915 2243-2490): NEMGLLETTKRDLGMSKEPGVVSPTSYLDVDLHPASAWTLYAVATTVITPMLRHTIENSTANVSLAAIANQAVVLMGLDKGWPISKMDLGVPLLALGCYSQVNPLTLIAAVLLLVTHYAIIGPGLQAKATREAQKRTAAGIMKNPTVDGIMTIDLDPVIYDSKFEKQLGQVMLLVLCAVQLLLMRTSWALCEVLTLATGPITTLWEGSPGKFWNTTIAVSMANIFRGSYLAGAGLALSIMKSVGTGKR

[4] = Zika virus, 72 h, Vero 76, MOI 0.05, 3-day incubation, CellTiter-Glo, read-out: EC50-CPE ZIKV-PLCal
[5] = Zika virus, Vero 76, 72 h, wild type ZIKV-RLuc, Vero 76, MOI 0.1, three days, read-out: EC50 ZIKV-RLuc
[6] = Vero 76, MOI 0.05, 3-day incubation, CellTiter-Glo, read-out: EC50-CPE ZIKV-PLCal
[7] = wild type ZIKV-RLuc, Vero 76, MOI 0.1, three days, read-out: EC50 ZIKV-RLuc
[8] = Zika virus, Fig 7, read-out: CPE EC50
[9] = Zika virus, Fig 7, read-out: RLuc EC50

## CC(C)(C)c1ccc(C(=O)NC2CCOC2)cc1 (stereo not shown) [MWAC-3509]
ZIKV PLCal [1]; [4]
  EC50: 18 µM
ZIKV-RLuc; [5]
  EC50: 6.1 µM
In vitro
  CC50: > 50 µM

## COC(C)(C)c1ccc(C(=O)NC2CC3CCC2C3)cc1 (stereo not drawn) [MWAC-3998, N-((exo)-bicyclo[2.2.1]heptan-2-yl)-4-(2-methoxypropan-2-yl)benzamide]
ZIKV PLCal [1]; [6]
  EC50: 2.72 ± 1.24 µM
ZIKV-RLuc; [7]
  EC50: 0.76 ± 0.05 µM
Vero76
  CC50: > 50 µM

## COc1ccc(C(C)NC(=O)c2ccc(C(C)(C)C)cc2)cc1 (racemic) [MWAC-3489]
ZIKV-RLuc; [7]
  EC50: 1.22 ± 0.86 µM
CHIKV
  EC50: > 50 µM

## CC(C)(C)c1ccc(C(=O)NC2CCCCCC2)cc1 [MWAC-4001, 4-(tert-butyl)-N-cycloheptylbenzamide]
ZIKV PLCal [1]; [8]
  EC50: 0.09 µM
ZIKV-RLuc; ZIKV RLuc assay, reference
  Fold-change of EC50, Wt: 1
ZIKV-RLuc; [5]
  EC50: 0.04 ± 0.006 µM
ZIKV-RLuc; [9]
  EC50: 0.05 µM
ZIKV PLCal [2]
  VYR: Virus Yield reduction (Log 10): -2.68 ± 0.36 Log 10
ZIKV-RLuc NS4B V241L
  EC50: 24 µM
  Fold-increase / fold-change of EC50, NS4B V241L vs wild type: 564.2
ZIKV-RLuc NS4B A245T
  EC50: 1.07 ± 0.16 µM
  Fold-increase / fold-change of EC50, NS4B A245T vs wild type: 25.1
ZIKV-RLuc NS4B V248G
  EC50: 10.1 ± 0.81 µM
  Fold-increase / fold-change of EC50, NS4B V248G vs wild type: 238.2
In vitro
  CC50: 12 µM

## C#C[C@@]1(O)[C@H](O)[C@@H](CO)O[C@H]1n1ccc2c(N)ncnc21 [NITD-008, reference compound]
ZIKV PLCal [1]; [6]
  EC50: 0.36 ± 0.27 µM
ZIKV-RLuc; [7]
  EC50: 0.31 ± 0.13 µM
CHIKV
  EC50: > 50 µM
ZIKV MR766
  EC50: 1.76 ± 0.2 µM
ZIKV DAK-41525-MA
  EC50: 0.89 ± 0.22 µM
ZIKV Ib H30656
  EC50: 1.43 ± 0.23 µM
ZIKV FLR
  EC50: 1.24 ± 0.09 µM
ZIKV PRVABC59
  EC50: 0.69 ± 0.11 µM
DENV Type 4 H241
  EC50: 0.18 ± 0.12 µM
YFV 17D
  EC50: 0.27 ± 0.12 µM
JEV SA-14
  EC50: 1.85 ± 1.1 µM
WNV NY-99
  EC50: 3 ± 2.5 µM
ZIKV-RLuc NS4B V241L; ZIKV RLuc assay
  EC50: 0.76 µM
  Fold-increase / fold-change of EC50, NS4B V241L vs wild type: 3.44
ZIKV-RLuc NS4B A245T; ZIKV RLuc assay
  EC50: 0.28 µM
  Fold-increase / fold-change of EC50, NS4B A245T vs wild type: 1.29
ZIKV-RLuc NS4B V248G; ZIKV RLuc assay
  EC50: 0.2 µM
  Fold-increase / fold-change of EC50, NS4B V248G vs wild type: 0.93
ZIKV PLCal [3]
  EC50: 0.8 ± 0.037 µM
Vero76
  CC50: 19 ± 10.3 µM

## Cc1ccc(C(=O)NC2CC3CCC2C3)cc1 (stereo not drawn) [MWAC-4010, N-((exo)-bicyclo[2.2.1]heptan-2-yl)-4-methylbenzamide]
Vero76
  CC50: > 50 µM

## CC(C)(C)c1ccc(C(=O)N[C@@H]2C[C@H]3CC[C@@H]2C3)cc1 (relative stereo) [MWAC-3989, N-((exo)-bicyclo[2.2.1]heptan-2-yl)-4-(tert-butyl)benzamide]
ZIKV PLCal [1]; [4]
  EC50: 0.46 ± 0.1 µM
ZIKV PLCal [1]; [8]
  EC50: 0.34 µM
ZIKV-RLuc; [5]
  EC50: 0.07 ± 0.007 µM
ZIKV-RLuc; [9]
  EC50: 0.115 µM
ZIKV-RLuc; [7]
  EC50: 0.13 ± 0.068 µM
ZIKV PLCal [2]
  VYR: Virus Yield reduction (Log 10): -0.18 ± 0.14 Log 10
ZIKV-RLuc NS4B V241L
  EC50: 10.6 ± 2.04 µM
ZIKV-RLuc NS4B A245T
  EC50: 0.45 ± 0.05 µM
ZIKV-RLuc NS4B V248G
  EC50: 4 ± 0.76 µM
In vitro
  CC50: > 50 µM

## CC(C)(C)c1ccc(C(=O)NC2CCS(=O)(=O)C2)cc1 (stereo not shown) [MWAC-3506]
ZIKV PLCal [1]; [4]
  EC50: > 50 µM
ZIKV-RLuc; [5]
  EC50: > 50 µM
In vitro
  CC50: > 50 µM

## CCc1ccc(C(=O)NC2CC3CCC2C3)cc1 (stereo not drawn) [MWAC-3996, N-((exo)-bicyclo[2.2.1]heptan-2-yl)-4-ethylbenzamide]
ZIKV PLCal [1]; [6]
  EC50: 27.1 ± 16.8 µM
ZIKV-RLuc; [7]
  EC50: 4.88 ± 1.36 µM
Vero76
  CC50: > 50 µM

## COc1cc(N[C@H](C(=O)c2c[nH]c3ccc(OC(F)(F)F)cc23)c2ccc(Cl)cc2OC)cc(S(C)(=O)=O)c1 [JNJ-1802]
DENV NS4B
  19F-NMR spectrum change with DENV NS4B: a chemical shift perturbation and significant line broadening was seen

## CC(C)c1ccc(C(=O)NC2CC3CCC2C3)cc1 (stereo not drawn) [MWAC-3991, N-((exo)-bicyclo[2.2.1]heptan-2-yl)-4-isopropylbenzamide]
ZIKV PLCal [1]; [6]
  EC50: 2.58 ± 1.39 µM
ZIKV-RLuc; [7]
  EC50: 0.72 ± 0.22 µM
Vero76
  CC50: > 50 µM
